# Measurements from US7776324B2, “Cancer vaccine” (Malaysian Palm Oil Board (MPOB), priority 2006, dated 2010).
# Test system: IFN-γ
# Assay: Serum IFN-γ levels following tocotrienol supplementation in mouse models
# Assay type: in vivo
substance,measurement,value
tocotrienol,serum levels of interferon-gamma (IFN-γ),significantly increased
